Laboratory results from patent publication US20150274634A1, “COMPOUNDS FOR THE TREATMENT OF OBESITY AND METHODS OF USE THEREOF” (The Children's Medical Center Corporation, priority 2014, published 2015).

What was measured:
[1] = weight loss products; cited from earlier work
mice = test: Locomotor activity (Comprehensive Lab Animal Monitoring System); assay type: in vivo
Description: FIGS. 16A and 16B are graphs showing x (FIG. 16A) and y (FIG. 16B) direction ambulatory motion for control and celastrol in dark and light cycles. Toxicity was evaluated using Columbus Instruments Comprehensive Lab Animal Monitoring System we have measure the locomotor activity of the animals.
Locomotor activity was also normal in celastrol-treated mice. This is consistent with celastrol not having a toxic effect causing anorexia and weight loss, since the latter would be associated with decreased locomotor activity.
FIGS. 16A and 16B are graphs showing x (FIG. 16A) and y (FIG. 16B) direction ambulatory motion for control and celastrol in dark and light 2 cycles. Toxicity was evaluated using Columbus Instruments Comprehensive Lab Animal Monitoring System we have measure the locomotor activity of the animals.

[2] = test system: alanine transaminase (ALT); test: Serum ALT by ELISA; assay type: in vivo; conditions: HFD-fed obese mice; 100 μg/kg i.p., three weeks
Description: (§1) To investigate the effect of celastrol administration on liver function, serum levels of alanine transaminase (ALT) and aspartate transaminase (AST) were measured in mice following three weeks of celastrol treatment (100 μg/kg, i.p.). ALT and AST were measured using an enzyme-linked immunosorbent assay (ELISA) kit (from Bio Scientific).

[3] = test system: aspartate transaminase (AST); test: Serum AST by ELISA; assay type: in vivo; conditions: HFD-fed obese mice; 100 μg/kg i.p., three weeks
Description: as §1

HFD-fed obese mice [4] = test: Liver and kidney histology (H&E); assay type: in vivo; conditions: 100 μg/kg i.p., three weeks
HFD-fed obese mice [5] = test: Leptin injection upon acute celastrol treatment, HFD-fed obese mice; assay type: in vivo; conditions: leptin 10 mg/kg i.p.
Description: (§2) It was therefore hypothesized that celastrol exerts anti-obesity effects through increasing leptin sensitivity in the brains of the HFD-fed obese mice. To test this hypothesis, leptin was administered to celastrol- or vehicle-treated HFD-fed obese animals. To avoid any possible leptin sensitizing effect of weight loss or decreased food intake created by celastrol administration, leptin injections were carried out upon acute celastrol treatment as described below.
(§3) Lean and HFD-fed obese mice were divided into four groups: 1) DMSO+saline, 2) DMSO+leptin, 3) celastrol+saline, and 4) celastrol+leptin (n=3 per group). Mice were injected (i.p.) with 100 μg/kg celastrol or vehicle (DMSO) one hour before dark cycle (day zero). 24 hours later, mice were injected for a second time with celastrol or DMSO (day 1), and all animals were then taken to 24 hour-fasting. On day two, at 21 hours of fasting, mice received a final injection of DMSO or celastrol. 30 minutes prior to dark cycle, at 23.5 hour of fasting, mice received a single i.p. injection of leptin (10 mg/kg, dissolved in saline), or saline. […] 1, 3, 6, 15, and 24-hour food intake and 24-hour body weight changes were recorded (FIG. 7A). […] This is clearly evident when food intake of the celastrol-treated mice is calculated in percent values (FIG. 7B). […]

lean mice = test: Leptin injection upon acute celastrol treatment, lean mice; assay type: in vivo; conditions: 6-hour time point, leptin 10 mg/kg i.p., DMSO or celastrol 100 μg/kg i.p. pretreatment
Description: as §2, §3

Compound: [Cr] [Chromium]
- Safety [1]: Likely safe

Compound: CC1=C(O)C(=O)C=C2C1=CC=C1[C@@]2(C)CC[C@@]2(C)[C@@H]3C[C@](C)(C(=O)O)CC[C@]3(C)CC[C@]12C [celastrol]
- locomotor activity (mice; celastrol-treated mice): normal
- x and y direction ambulatory motion counts (mice; dark and light cycles, celastrol versus control): not significantly different
- serum ALT level [2]: decreases
- serum AST level [3]: decreases
- kidney morphology (HFD-fed obese mice [4]): no detectable change

Compound: Conjugated linoleic acid [Conjugated linoleic acid (CLA)]
- Effectiveness [1]: Possibly effective
- Safety [1]: Possibly safe

Compound: leptin: peptide hormone, afferent signal in a negative feedback loop regulating food intake and body weight
- decrease in food intake upon leptin injection (HFD-fed obese mice [5]; 6-hour time point, DMSO or celastrol 100 μg/kg i.p. pretreatment): approximately 40%
- 24-hour body weight change (HFD-fed obese mice [5]; 24 hour ad libitum feeding after 24-hour fasting, celastrol 100 μg/kg i.p.): resistant
- decrease in food intake upon leptin injection (lean mice): approximately 40%
